“And” between values parts separate entries of the source, which are not always exact repeats. Equal entries are not always repeated.
How the values were obtained:
Assay type in all cases: cell-based, human
[1] = test system: PC-9 cells; assay: Annexin V/PI flow cytometry for cell apoptosis, PC-9; parameters: key to Apoptosis (sum of Q2 and Q3) / Apoptosis, Average: % apoptotic cells (Annexin V/PI flow cytometry); conditions: for Apoptosis, Average / Apoptosis (sum of Q2 and Q3) / Lymphocytes/Q2: FITC-A+ , PI-A+ Freq. of Parent / Lymphocytes/Q3: FITC-A+ , PI-A- Freq. of Parent: PC-9, 48h; for Apoptosis, Average: average of three repeats; for Apoptosis (sum of Q2 and Q3): single repeats (Repeat 1-3); for Lymphocytes/Q2: FITC-A+ , PI-A+ Freq. of Parent / Lymphocytes/Q3: FITC-A+ , PI-A- Freq. of Parent: single runs
Procedure: (§1) To establish whether the antiproliferative efficacy is associated with apoptosis, PC-9 and H460 cells were treated with compound e4 or e12 of various concentrations (4, 8 and 12 μM) for 48 h, and then assessed with flow cytometry.
(§2) Cell-apoptosis analysis was carried out by flow cytometry using the Annexin V/PI apoptosis kit according to the manufacturer’s manual. Briefly, PC-9 or H460 (3 × 10^4–5 × 10^4/well) cells were seeded in 12-well plates for 24 h, and then treated with 0.1% DMSO (as control) or various concentrations of compound e4 or e12 for 48 h, respectively. Cells were harvested, washed with PBS, and then incubated with 100ul of 1X Annexin V binding buffer containing 1 μl PI and 1 μl FITC Annexin V for 15 min at RT in the dark. 200 µl of 1X binding buffer were added to each tube for flow cytometry analysis (BD LSRFortessa™ Flow Cytometer). The percentages of apoptotic cells were analyzed using FlowJo soft.

[2] = test system: H460 cells; assay: Annexin V/PI flow cytometry for cell apoptosis, H460; conditions: for Percentage of apoptosis, Average: average of three runs; for Q2+Q3 / Lymphocytes/Q2: FITC-A+ , PI-A+ Freq. of Parent / Lymphocytes/Q3: FITC-A+ , PI-A- Freq. of Parent / Percentage of apoptosis: single runs; for Q2+Q3: given as fraction; for Lymphocytes/Q2: FITC-A+ , PI-A+ Freq. of Parent / Lymphocytes/Q3: FITC-A+ , PI-A- Freq. of Parent / Percentage of apoptosis: time as in file name (24h, 48h or not given)
Procedure: as §1, §2

[3] = test system: CCND1, CCNA2, CCNB1, CDK2, CDK6 RNA in PC-9 cells; assay: qPCR assay for cell cycle-related gene analysis; conditions: for CCNB relative mRNA expression (2^-ddCt vs NC, normalised to beta-Actin) / CCND1 relative mRNA expression (2^-ddCt vs NC, normalised to beta-Actin) / CDK6 relative mRNA expression (2^-ddCt vs NC, normalised to beta-Actin): qPCR SYBR_GREEN, NC = 1; for RQ: endogenous control b-Actin, reference sample NC; for 2^ΔΔCт CCNA / 2^ΔΔCт CCNB / 2^ΔΔCт CCND1 / 2^ΔΔCт CDK2: Repeat 1-3, relative to NC = 1
Description: To better understand the mechanisms underlying cell cycle arrest induced by e4 and e12 in NSCLC cells, we assessed the expression levels of a few genes involved in cell cycle regulation, including cyclin D1 (CCND1), cyclin A2 (CCNA2), cyclin B1 (CCNB1), cyclin-dependent kinase 2 (CDK2), and cyclin-dependent kinase 6 (CDK6) in PC-9 by qPCR. […] CCNA2 is known to bind and activate CDK2 and thus promotes the transition through G1/S and G2/M. CCNB1 and CCND1 are essential to mitosis and G1/S transition respectively. While G2/M arrest weas not detected, the changes in these gene expression profiles interpret the G1/S arrests in PC-9 cells treated with e4 and e12. PC-9 cells exposed to the compounds for various periods should be examined further.
Total RNA of cells was extracted and cDNA was synthesized. The primers for the target products were designed as in Table 3.

COCCOc1cc2ncnc(Nc3cccc(-c4cn(-c5ccc(C)cc5)nn4)c3)c2cc1OCCOC [e12, [6,7-Bis-(2-methoxy-ethoxy)-quinazolin-4-yl]-[3-(1-p-tolyl-1H-[1,2,3]triazol-4-yl)-phenyl]-amine]
cell apoptosis (flow cytometry) ([1]; PC-9, 4, 8 and 12 μM, 48 h): significant cell apoptosis
Apoptosis, Average ([1]; 4uM): 13.94
Apoptosis (sum of Q2 and Q3) ([1]; 4uM): 15.01 and 16.36 and 10.45
Lymphocytes/Q2: FITC-A+ , PI-A+ Freq. of Parent ([1]; 4uM): 14.50% and 15.4% and 9.81%
Lymphocytes/Q3: FITC-A+ , PI-A- Freq. of Parent ([1]; 4uM): 0.51% and 0.96% and 0.64%
Apoptosis, Average ([1]; 8uM): 12.92
Apoptosis (sum of Q2 and Q3) ([1]; 8uM): 13.98 and 12.64 and 12.13
Lymphocytes/Q2: FITC-A+ , PI-A+ Freq. of Parent ([1]; 8uM): 12.60% and 10.6% and 10.7%
Lymphocytes/Q3: FITC-A+ , PI-A- Freq. of Parent ([1]; 8uM): 1.38% and 2.04% and 1.43%
Apoptosis, Average ([1]; 12uM): 29.21
Apoptosis (sum of Q2 and Q3) ([1]; 12uM): 24.77 and 29.39 and 33.48
Lymphocytes/Q2: FITC-A+ , PI-A+ Freq. of Parent ([1]; 12uM): 20.50% and 25.9% and 29.5%
Lymphocytes/Q3: FITC-A+ , PI-A- Freq. of Parent ([1]; 12uM): 4.27% and 3.49% and 3.98%
Percentage of apoptosis, Average ([2]; H460, 4uM): 14.68%
Q2+Q3 ([2]; H460, 4uM): 0.149
Lymphocytes/Q2: FITC-A+ , PI-A+ Freq. of Parent ([2]; H460, 4uM): 8.07% and 10.30% and 7.57%
Lymphocytes/Q3: FITC-A+ , PI-A- Freq. of Parent ([2]; H460, 4uM): 6.83% and 3.75% and 7.52%
Percentage of apoptosis ([2]; H460, 4uM): 14.9% and 14.05% and 15.09%
Percentage of apoptosis, Average ([2]; H460, 8uM): 16.0567%
Q2+Q3 ([2]; H460, 8uM): 0.1436
Lymphocytes/Q2: FITC-A+ , PI-A+ Freq. of Parent ([2]; H460, 8uM): 7.09% and 10.30% and 10.90%
Lymphocytes/Q3: FITC-A+ , PI-A- Freq. of Parent ([2]; H460, 8uM): 7.27% and 6.59% and 6.02%
Percentage of apoptosis ([2]; H460, 8uM): 14.36% and 16.89% and 16.92%
Percentage of apoptosis, Average ([2]; H460, 12uM): 28.7833%
Q2+Q3 ([2]; H460, 12uM): 0.213
Lymphocytes/Q3: FITC-A+ , PI-A- Freq. of Parent ([2]; H460, 12uM): 10.9% and 9.22% and 9.03%
Percentage of apoptosis ([2]; H460, 12uM): 21.3% and 31.62% and 33.43%
cell apoptosis (flow cytometry) ([2]; H460, 4, 8 and 12 μM, 48 h): significant cell apoptosis
CCNB relative mRNA expression (2^-ddCt vs NC, normalised to beta-Actin) ([3]; 4uM): 0.9828
CCND1 relative mRNA expression (2^-ddCt vs NC, normalised to beta-Actin) ([3]; 4uM): 0.7886
CDK6 relative mRNA expression (2^-ddCt vs NC, normalised to beta-Actin) ([3]; 4uM): 0.5928
CCNB relative mRNA expression (2^-ddCt vs NC, normalised to beta-Actin) ([3]; 8uM): 0.8452
CCND1 relative mRNA expression (2^-ddCt vs NC, normalised to beta-Actin) ([3]; 8uM): 0.7649
CDK6 relative mRNA expression (2^-ddCt vs NC, normalised to beta-Actin) ([3]; 8uM): 0.8101
CCNB relative mRNA expression (2^-ddCt vs NC, normalised to beta-Actin) ([3]; 12uM): 0.7825
CCND1 relative mRNA expression (2^-ddCt vs NC, normalised to beta-Actin) ([3]; 12uM): 0.6173
CDK6 relative mRNA expression (2^-ddCt vs NC, normalised to beta-Actin) ([3]; 12uM): 0.676
RQ ([3]; CCNA mRNA, 4uM): 0.8394
RQ ([3]; CCNA mRNA, 8uM): 0.6204
RQ ([3]; CCNA mRNA, 12uM): 0.7362
2^ΔΔCт CCNA ([3]; 4uM): 0.5435 and 0.6447 and 0.8394
2^ΔΔCт CCNA ([3]; 8uM): 0.582 and 0.5272 and 0.6204
2^ΔΔCт CCNA ([3]; 12uM): 0.5914 and 0.5472 and 0.7362
RQ ([3]; CCNB mRNA, 4uM): 1.03
RQ ([3]; CCNB mRNA, 8uM): 0.8431
RQ ([3]; CCNB mRNA, 12uM): 1.0421
2^ΔΔCт CCNB ([3]; 4uM): 0.9828 and 0.8732 and 1.03
2^ΔΔCт CCNB ([3]; 8uM): 0.8452 and 0.8244 and 0.8431
2^ΔΔCт CCNB ([3]; 12uM): 0.7825 and 0.7721 and 1.0421
2^ΔΔCт CCND1 ([3]; CCND1, 4uM): 0.7886 and 0.963 and 1.159
2^ΔΔCт CCND1 ([3]; CCND1, 8uM): 0.7649 and 0.9528 and 0.8372
2^ΔΔCт CCND1 ([3]; CCND1, 12uM): 0.6173 and 0.9545 and 0.694
RQ ([3]; CCND1 mRNA, 4uM): 1.159
RQ ([3]; CCND1 mRNA, 8uM): 0.8372
RQ ([3]; CCND1 mRNA, 12uM): 0.694
2^ΔΔCт CDK2 ([3]; CDK2, 4uM): 0.9262 and 1.002 and 1.127
2^ΔΔCт CDK2 ([3]; CDK2, 8uM): 0.848 and 1.034 and 0.9665

Source: paper PMC8776995 (Frontiers in Chemistry, 2022)
